The text below walks through data of ChEMBL document CHEMBL1157898 (Bioorg Med Chem Lett, 2010).

Experiment [1] addresses Serine/threonine-protein kinase MARK1 (Homo sapiens) (UniProt Q9P0L2). In words: Inhibition of MARK1.
A short description of experiment [2]: Inhibition of PKA.
For experiment [3], the target named is Serine/threonine-protein kinase pim-2 (Homo sapiens) (UniProt Q9P1W9). In words: Inhibition of PIM2.
In experiment [4] the target is T1, Serine/threonine-protein kinase D2 (Homo sapiens) (UniProt Q9BZL6).
T1 sequence (whole entry): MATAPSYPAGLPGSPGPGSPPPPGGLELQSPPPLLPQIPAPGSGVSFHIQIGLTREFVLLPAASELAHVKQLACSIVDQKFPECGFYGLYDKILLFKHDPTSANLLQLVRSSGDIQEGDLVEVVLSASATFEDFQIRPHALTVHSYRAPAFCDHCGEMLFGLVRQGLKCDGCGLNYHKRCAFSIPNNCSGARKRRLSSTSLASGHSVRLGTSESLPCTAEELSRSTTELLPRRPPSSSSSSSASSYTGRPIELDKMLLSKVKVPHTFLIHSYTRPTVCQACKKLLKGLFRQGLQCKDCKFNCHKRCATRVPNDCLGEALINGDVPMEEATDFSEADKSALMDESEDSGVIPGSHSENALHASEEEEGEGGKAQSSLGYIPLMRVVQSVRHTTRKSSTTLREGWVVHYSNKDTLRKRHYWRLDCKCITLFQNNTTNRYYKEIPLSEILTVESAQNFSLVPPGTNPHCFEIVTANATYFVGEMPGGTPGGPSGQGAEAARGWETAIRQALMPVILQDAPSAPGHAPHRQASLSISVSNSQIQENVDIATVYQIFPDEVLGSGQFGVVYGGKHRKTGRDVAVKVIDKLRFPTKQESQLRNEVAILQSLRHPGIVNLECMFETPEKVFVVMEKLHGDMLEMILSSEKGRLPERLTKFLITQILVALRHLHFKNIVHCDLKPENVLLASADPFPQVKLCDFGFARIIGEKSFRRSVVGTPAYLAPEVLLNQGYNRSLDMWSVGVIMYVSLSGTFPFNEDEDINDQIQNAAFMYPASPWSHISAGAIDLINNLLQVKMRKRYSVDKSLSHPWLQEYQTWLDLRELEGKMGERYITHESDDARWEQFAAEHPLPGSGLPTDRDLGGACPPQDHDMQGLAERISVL
In words: Inhibition of PKD2.

Experiment [5] concerns the target T2, Serine/threonine-protein kinase 3 (Homo sapiens) (UniProt Q13188).
T2 sequence (whole entry): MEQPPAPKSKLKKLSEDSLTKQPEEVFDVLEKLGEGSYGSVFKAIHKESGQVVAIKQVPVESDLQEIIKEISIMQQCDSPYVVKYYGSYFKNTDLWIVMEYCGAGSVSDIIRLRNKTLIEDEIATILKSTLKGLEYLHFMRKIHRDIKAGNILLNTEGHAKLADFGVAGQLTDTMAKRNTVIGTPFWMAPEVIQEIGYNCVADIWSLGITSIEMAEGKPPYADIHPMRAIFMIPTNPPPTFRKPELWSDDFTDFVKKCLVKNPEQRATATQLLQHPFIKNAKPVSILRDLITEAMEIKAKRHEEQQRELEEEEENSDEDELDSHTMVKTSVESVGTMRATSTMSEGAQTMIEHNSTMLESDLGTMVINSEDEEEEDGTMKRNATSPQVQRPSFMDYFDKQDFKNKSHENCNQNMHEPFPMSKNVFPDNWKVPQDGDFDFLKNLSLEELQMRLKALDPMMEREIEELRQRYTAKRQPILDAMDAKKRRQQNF
In words: Inhibition of MST2.

Experiment [6] has as its target T3, Protein kinase C zeta type (Homo sapiens) (UniProt Q05513).
T3 sequence (whole entry): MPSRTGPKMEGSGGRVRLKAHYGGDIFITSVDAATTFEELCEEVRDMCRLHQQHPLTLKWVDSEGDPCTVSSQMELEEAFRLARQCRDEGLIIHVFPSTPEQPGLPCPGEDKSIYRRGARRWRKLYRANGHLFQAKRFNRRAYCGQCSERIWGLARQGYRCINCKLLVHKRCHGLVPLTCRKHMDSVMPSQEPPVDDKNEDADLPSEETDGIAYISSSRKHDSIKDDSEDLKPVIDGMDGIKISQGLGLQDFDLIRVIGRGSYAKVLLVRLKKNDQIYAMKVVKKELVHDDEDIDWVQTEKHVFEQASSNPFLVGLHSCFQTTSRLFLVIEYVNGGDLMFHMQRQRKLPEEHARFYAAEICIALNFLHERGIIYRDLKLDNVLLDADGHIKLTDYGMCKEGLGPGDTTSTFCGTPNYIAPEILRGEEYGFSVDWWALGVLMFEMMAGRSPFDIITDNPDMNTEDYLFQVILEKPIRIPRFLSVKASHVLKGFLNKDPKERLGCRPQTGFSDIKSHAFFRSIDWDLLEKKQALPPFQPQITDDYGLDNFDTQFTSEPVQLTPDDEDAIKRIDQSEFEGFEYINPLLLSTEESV
In words: Inhibition of PKCzeta.

Experiment [7] concerns the target Tyrosine-protein kinase Fyn (Homo sapiens) (UniProt P06241). In words: Inhibition of FYN.
Experiment [8] has as its target T4, MAP kinase-activated protein kinase 5 (Homo sapiens) (UniProt Q8IW41).
T4 sequence (whole entry): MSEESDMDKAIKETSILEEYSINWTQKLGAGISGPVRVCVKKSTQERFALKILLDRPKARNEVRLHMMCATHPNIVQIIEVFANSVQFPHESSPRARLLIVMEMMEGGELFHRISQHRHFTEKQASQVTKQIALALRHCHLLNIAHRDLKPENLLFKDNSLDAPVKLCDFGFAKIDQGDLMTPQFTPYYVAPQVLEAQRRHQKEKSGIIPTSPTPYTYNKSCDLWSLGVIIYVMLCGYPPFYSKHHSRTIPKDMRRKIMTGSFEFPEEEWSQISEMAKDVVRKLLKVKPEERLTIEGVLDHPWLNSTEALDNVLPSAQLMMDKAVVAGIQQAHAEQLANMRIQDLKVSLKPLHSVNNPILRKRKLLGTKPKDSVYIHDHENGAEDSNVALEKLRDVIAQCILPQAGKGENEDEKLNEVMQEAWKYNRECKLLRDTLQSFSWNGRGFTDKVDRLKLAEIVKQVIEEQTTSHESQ
In words: Inhibition of PRAK.

For experiment [9], the target named is Serine/threonine-protein kinase PAK 2 (Homo sapiens) (UniProt Q13177). In words: Inhibition of PAK2.
Experiment [10] deals with MAP kinase-activated protein kinase 2 (Homo sapiens) (UniProt P49137). In words: Inhibition of MAPKAPK2.
MAP kinase-activated protein kinase 2 (Homo sapiens), sequence (P49137 whole entry, looked up): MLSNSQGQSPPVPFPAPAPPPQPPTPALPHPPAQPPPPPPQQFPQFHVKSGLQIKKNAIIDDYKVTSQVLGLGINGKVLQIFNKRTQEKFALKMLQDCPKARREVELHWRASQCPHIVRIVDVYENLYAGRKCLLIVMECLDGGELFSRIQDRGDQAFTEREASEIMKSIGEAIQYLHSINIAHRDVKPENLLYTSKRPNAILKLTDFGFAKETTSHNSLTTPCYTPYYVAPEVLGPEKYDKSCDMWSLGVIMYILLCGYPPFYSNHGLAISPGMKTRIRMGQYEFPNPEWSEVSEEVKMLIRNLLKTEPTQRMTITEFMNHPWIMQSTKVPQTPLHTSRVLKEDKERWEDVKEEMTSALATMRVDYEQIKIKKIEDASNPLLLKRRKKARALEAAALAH
Experiment [11] has as its target Rho-associated protein kinase 2 (Homo sapiens) (UniProt O75116). In words: Inhibition of ROCK2.
The target of experiment [12] is Protein kinase C beta type (Homo sapiens) (UniProt P05771). In words: Inhibition of PKCbeta2.
Protein kinase C beta type (Homo sapiens), sequence (P05771 2-671 limits assumed): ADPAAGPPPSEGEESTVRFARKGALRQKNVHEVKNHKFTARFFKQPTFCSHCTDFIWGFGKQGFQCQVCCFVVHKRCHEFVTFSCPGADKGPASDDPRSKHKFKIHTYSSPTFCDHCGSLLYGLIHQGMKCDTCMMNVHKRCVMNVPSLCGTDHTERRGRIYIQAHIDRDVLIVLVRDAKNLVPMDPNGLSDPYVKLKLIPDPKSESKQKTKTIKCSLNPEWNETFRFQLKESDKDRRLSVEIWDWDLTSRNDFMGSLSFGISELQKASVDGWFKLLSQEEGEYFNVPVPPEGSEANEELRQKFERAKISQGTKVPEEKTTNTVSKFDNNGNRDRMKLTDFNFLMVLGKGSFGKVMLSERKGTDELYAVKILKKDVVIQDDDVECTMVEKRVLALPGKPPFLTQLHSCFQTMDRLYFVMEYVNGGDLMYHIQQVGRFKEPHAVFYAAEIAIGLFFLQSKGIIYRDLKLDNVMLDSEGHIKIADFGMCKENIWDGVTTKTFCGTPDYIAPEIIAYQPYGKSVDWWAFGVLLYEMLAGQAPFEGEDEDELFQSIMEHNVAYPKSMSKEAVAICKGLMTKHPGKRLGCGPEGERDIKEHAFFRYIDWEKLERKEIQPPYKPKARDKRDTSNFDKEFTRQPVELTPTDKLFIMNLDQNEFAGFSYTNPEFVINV
Experiment [13] has as its target Hepatocyte growth factor receptor (Homo sapiens) (UniProt P08581). In words: Inhibition of MET.
Experiment [14] deals with Tyrosine-protein kinase Lyn (Homo sapiens) (UniProt P07948). In words: Inhibition of LYN.
Tyrosine-protein kinase Lyn (Homo sapiens), sequence (P07948 2-512 limits assumed): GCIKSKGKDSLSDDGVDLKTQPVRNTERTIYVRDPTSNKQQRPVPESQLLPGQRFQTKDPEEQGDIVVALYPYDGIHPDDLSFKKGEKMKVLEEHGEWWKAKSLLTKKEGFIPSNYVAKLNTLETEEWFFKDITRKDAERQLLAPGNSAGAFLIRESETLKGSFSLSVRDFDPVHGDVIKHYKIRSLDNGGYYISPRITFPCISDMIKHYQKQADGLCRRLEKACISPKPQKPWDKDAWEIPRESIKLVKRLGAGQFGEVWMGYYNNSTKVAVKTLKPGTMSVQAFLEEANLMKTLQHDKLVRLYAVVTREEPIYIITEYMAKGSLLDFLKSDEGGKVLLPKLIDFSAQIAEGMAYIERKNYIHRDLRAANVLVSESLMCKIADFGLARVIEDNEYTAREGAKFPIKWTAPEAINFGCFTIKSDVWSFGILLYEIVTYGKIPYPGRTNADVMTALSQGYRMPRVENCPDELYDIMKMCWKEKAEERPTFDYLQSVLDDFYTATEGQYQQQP

Molecules are shown by their SMILES. Calls of active or inactive are those of the source. The rule behind the calls is not given here. Bounds are passed on as bounds.

Tyrosine-protein kinase Fyn (Homo sapiens), sequence (P06241 2-537 limits assumed): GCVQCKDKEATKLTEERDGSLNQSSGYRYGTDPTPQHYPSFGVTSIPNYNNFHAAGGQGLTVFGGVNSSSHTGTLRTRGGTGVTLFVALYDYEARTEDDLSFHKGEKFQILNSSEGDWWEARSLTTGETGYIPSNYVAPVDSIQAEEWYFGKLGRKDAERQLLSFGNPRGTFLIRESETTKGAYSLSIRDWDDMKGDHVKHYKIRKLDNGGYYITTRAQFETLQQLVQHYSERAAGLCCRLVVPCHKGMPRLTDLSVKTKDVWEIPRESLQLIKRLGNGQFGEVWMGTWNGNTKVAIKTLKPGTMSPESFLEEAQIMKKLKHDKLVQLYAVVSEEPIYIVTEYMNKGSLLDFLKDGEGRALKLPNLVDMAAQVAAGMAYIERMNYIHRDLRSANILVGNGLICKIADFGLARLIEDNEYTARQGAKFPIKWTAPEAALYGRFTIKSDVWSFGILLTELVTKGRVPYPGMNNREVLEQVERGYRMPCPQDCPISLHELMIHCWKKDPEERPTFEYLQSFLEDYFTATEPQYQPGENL
Serine/threonine-protein kinase MARK1 (Homo sapiens), sequence (Q9P0L2 whole entry, looked up): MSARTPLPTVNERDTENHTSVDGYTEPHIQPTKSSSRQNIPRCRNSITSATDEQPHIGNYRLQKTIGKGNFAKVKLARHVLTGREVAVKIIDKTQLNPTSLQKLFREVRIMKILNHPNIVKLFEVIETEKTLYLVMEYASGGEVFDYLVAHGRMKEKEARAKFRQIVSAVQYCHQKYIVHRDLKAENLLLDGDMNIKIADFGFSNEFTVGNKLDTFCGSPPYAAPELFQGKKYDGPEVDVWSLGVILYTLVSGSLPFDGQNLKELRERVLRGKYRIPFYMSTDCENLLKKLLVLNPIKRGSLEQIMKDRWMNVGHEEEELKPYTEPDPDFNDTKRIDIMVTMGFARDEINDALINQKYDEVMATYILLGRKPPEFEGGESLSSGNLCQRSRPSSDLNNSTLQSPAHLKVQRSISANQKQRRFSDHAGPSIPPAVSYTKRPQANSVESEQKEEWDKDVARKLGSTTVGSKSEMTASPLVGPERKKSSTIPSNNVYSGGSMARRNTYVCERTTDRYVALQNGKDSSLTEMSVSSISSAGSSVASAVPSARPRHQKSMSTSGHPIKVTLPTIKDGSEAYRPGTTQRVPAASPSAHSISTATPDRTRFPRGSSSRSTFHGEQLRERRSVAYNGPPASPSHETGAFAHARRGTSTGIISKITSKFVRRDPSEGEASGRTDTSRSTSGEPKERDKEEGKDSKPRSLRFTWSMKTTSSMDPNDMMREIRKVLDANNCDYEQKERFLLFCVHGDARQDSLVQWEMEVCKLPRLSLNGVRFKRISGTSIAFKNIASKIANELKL
Rho-associated protein kinase 2 (Homo sapiens), sequence (O75116 whole entry, looked up): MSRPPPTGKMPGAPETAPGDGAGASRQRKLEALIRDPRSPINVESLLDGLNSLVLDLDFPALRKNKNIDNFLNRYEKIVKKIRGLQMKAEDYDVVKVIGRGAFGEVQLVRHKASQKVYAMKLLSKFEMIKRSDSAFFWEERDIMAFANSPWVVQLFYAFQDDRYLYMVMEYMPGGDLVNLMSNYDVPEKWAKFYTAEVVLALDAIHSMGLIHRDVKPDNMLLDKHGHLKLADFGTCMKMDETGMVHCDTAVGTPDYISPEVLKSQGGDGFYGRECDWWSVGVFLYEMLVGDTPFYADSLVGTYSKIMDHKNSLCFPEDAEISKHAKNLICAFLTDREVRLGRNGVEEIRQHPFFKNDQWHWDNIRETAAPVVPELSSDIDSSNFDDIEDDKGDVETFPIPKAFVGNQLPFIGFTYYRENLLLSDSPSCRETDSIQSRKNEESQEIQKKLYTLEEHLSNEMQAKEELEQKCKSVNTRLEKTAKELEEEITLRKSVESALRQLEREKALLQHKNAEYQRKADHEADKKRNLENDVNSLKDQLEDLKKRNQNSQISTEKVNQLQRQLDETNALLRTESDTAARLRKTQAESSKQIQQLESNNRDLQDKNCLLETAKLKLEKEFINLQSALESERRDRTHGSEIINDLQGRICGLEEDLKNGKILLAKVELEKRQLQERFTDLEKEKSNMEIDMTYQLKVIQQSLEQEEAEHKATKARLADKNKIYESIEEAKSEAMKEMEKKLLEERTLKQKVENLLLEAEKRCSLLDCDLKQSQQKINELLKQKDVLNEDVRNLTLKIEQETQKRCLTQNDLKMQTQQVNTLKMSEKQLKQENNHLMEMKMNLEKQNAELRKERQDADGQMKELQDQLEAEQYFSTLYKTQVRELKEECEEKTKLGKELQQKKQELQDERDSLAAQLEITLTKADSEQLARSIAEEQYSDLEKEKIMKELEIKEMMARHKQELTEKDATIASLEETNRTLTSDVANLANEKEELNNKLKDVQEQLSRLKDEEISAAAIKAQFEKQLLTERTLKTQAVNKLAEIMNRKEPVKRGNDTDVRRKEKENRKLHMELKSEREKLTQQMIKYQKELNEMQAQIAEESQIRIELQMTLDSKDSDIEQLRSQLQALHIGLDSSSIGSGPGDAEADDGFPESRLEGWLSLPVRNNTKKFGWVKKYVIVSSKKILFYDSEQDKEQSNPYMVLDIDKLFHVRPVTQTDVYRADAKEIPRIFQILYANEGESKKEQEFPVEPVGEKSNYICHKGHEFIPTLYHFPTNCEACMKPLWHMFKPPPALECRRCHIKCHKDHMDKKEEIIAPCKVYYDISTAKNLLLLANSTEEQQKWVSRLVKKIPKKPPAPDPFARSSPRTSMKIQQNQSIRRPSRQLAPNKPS
Serine/threonine-protein kinase pim-2 (Homo sapiens), sequence (Q9P1W9 whole entry, looked up): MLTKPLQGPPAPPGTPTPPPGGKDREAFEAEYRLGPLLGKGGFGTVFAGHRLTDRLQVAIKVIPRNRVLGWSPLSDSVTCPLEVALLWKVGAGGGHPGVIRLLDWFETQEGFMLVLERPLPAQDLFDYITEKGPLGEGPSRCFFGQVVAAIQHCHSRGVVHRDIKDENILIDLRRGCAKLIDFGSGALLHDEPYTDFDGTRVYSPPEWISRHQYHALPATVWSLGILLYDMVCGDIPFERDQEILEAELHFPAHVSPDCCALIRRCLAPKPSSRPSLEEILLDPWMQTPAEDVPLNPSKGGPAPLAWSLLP

Turning to `COc1cc(OC)c(/C=C2/C(=O)Nc3ccc(Cl)cc32)c(OC)c1`, the inhibition in [1] (concentration not given here), in experiment [2] (concentration not given here), in [3] (concentration not given here), in [4] (concentration not given here), in [5] (concentration not given here) and in experiment [6] (concentration not given here) was under 20% in each case. Besides, the inhibition in experiment [7] (concentration not given here), in [8] (concentration not given here), in experiment [9] (concentration not given here), in experiment [10] (concentration not given here), in experiment [11] (concentration not given here) and in [12] (concentration not given here) was under 20% each time. For the same compound, the inhibition in experiment [13] (concentration not given here) and in experiment [14] (concentration not given here) was under 20% each time.
As for `O=C1Nc2ccc(Cl)cc2/C1=C\c1ccccc1F`, the inhibition entry in experiment [1], in experiment [2], in experiment [3], in [4], in experiment [5] and in [6] was “inactive” throughout. For the same compound, the inhibition result in [7], in experiment [8], in experiment [9], in [10], in experiment [11] and in experiment [12] was “inactive” in each case. For the same compound, the inhibition entry in experiment [13] and in experiment [14] was “inactive” in each case.
On to `O=C1Nc2ccc(Cl)cc2/C1=C\c1ccc2c(c1)OCO2`, for which the inhibition result in [1], in experiment [2], in experiment [3], in experiment [4], in experiment [5] and in [6] was “inactive” each time. In addition, the inhibition result in [7], in experiment [8], in experiment [9], in experiment [10], in experiment [11] and in experiment [12] was “inactive” throughout. Besides, the inhibition result in experiment [13] and in experiment [14] was “inactive” each time.

One may read the inhibition as the percentage by which the read-out fell short of the control.
